Data from article PMC10771590, “Pathway crosstalk between the central metabolic and heme biosynthetic pathways in Phanerochaete chrysosporium” (Applied Microbiology and Biotechnology, 2024).

Columns and labels:
pig CS = target: T1, pig CS (Sus scrofa, UniProt P00889); assay: Inhibitory effect of hemin on pig CS (SsCS) reaction; format: biochemical; conditions: 0–5.7 µM hemin, incubated 0 or 60 min at 4 °C (Supplemental Fig. S2)
T1 sequence (P00889 28-464): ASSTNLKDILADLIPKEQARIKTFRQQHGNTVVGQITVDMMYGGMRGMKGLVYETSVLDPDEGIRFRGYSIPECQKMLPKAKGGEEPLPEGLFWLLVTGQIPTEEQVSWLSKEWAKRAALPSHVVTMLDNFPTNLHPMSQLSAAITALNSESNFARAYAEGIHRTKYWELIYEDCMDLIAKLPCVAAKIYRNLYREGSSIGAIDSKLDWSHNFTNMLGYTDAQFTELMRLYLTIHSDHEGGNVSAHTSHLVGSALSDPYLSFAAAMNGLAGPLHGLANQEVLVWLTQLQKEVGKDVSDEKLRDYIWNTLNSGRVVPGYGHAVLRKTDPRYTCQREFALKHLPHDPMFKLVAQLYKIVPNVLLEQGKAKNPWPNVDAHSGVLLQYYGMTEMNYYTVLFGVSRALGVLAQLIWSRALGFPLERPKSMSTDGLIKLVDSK
Source text: One heme-responsive-motif (HRM) was found in PcCS, which could be a possible heme-binding site (Lathrop and Timko [1993]; Zhang and Guarente [1995]; Ishikawa et al. [2005]; Yamanaka et al. [2003]). From the alignment analysis, only certain fungi contain HRM (CP motif) in their CSs (Supplemental Fig. S1). No mammalian CS contains HRM (Supplemental Fig. S1). […] Furthermore, the His residue corresponding to His^347 in PcCS was conserved in either mammalian or fungal CSs. Combining all the data, the heme-binding site is concluded to be His^347 of PcCS.
Concentration of hemin (nM)
Figure S2 Inhibitory effect of hemin on SsCS reaction. Reaction mixtures containing
1.5 nM SsCS, 40 mM Tris/HCl (pH 8.5) and 0, 0.5, 1.2 and 5.7 µM hemin were incubated […]

P. chrysosporium = assay: Growth of P. chrysosporium with exogenously added hemin; format: cell-based, Phanerochaete chrysosporium
Procedure: P. chrysosporium (ATCC 34541) was grown from conidial inocula at 37 °C in a stationary culture (20-ml medium in a 200-ml Erlenmeyer flask). The medium (pH 4.5) used in this study was a ligninolytic medium as previously described (Shimizu et al. [2005]; Kirk et al. [1978]), with 1% glucose as carbon source and 1.2 mM ammonium tartrate as nitrogen source.
Taking these observations together, a metabolic “pathway crosstalk” is proposed and summarized in Scheme 1. In P. chrysosporium, heme plays an important role as a prosthetic molecule for many cellular processes, in particular, ligninolytic enzymes. Upon addition of exogenous aromatic compounds, fungal cellular metabolism was dramatically shifted from basic energy metabolism to “defensive” or “productive” metabolism. Glucose uptake and consumption and NADPH and succinyl-CoA production were activated in response to exogenous aromatic compounds. Furthermore, the heme synthetic pathway was activated (Shimizu et al. [2005]). Immediate activation of the heme synthesis against aromatics is crucial for the fungus to produce aromatics-degrading enzymes. On the other hand, free heme is highly toxic to the cell. Thus, metabolic overflow of heme biosynthesis causes highly stressful conditions in the mitochondria. The TCA cycle, including CS, is located in the mitochondrial matrix space (Mcalister-Henn and Small [1997]). […]

rPcCS = target: T2, rPcCS (Phanerodontia chrysosporium, UniProt Q0EAA7); assay: Heme-derived time-dependent inhibition of PcCS; format: biochemical, Phanerochaete chrysosporium; conditions: 30-min preincubation of PcCS with hemin at 4 °C; read-out: half-maximal inhibitory concentration (IC50)
T2 sequence (Q0EAA7 1-446): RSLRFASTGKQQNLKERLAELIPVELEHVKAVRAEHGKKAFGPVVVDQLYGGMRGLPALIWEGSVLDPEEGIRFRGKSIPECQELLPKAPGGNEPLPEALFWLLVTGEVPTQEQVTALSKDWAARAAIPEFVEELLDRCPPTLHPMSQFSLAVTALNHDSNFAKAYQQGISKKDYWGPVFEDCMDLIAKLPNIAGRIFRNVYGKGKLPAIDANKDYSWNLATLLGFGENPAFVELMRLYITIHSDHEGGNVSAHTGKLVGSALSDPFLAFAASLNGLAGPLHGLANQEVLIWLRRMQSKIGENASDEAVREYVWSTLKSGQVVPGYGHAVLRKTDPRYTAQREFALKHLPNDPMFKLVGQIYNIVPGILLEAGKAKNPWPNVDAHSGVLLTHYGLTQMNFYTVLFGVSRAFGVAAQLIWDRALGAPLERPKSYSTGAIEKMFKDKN
Procedure: Therefore, the data were expressed as relative values against the controls. When 5.7 μM hemin was used, citrate formed was determined by HPLC because of spectroscopic interference with the Soret absorption. All experiments were repeated at least three times, and standard deviations were within 5% in each plot.
Fig. 5 Inhibitory effect of hemin on PcCS reaction. […] Reaction mixtures contained 1.5 nM rPcCS, 40 mM Tris-HCl (pH 8.5), and 120 μM DTNB. Fixed substrate was added at 12 μM and variable substrate at 3–12 μM. […] Insets: secondary plots of each slope of Lineweaver–Burk plots against the concentration of hemin for determining inhibition constants.

C=CC1=C(C)c2cc3[nH]c(cc4nc(cc5[nH]c(cc1n2)c(C)c5CCC(=O)O)C(CCC(=O)O)=C4C)c(C)c3C=C.[Fe+3] [hemin]
effect on pig CS activity (pig CS): inhibited | growth of P. chrysosporium (P. chrysosporium; 1.0 μM hemin added to culture medium in the dark (data not shown)): completely shut down | growth of P. chrysosporium (P. chrysosporium; exogenous addition of hemin at sub-μM concentrations): completely shut down | IC50 (rPcCS): 1000 nM
